In ChEMBL document CHEMBL5120887, “Hybrid Diterpenic Meroterpenoids from an Endophytic Penicillium sp. Induced by Chemical Epigenetic Manipulation” (J Nat Prod, 2022) one finds IC50 data, which are given here for one compound.

In this assay the target is Acetylcholinesterase (Homo sapiens, UniProt P22303). Nature of the assay: Inhibition of AChE in human Erythrocyte incubated for 20 mins by Ellman reagent based spectrophotometry. In kind it is cell-based. In general terms: DTNB colorimetry detects thiols as they appear.
Sequence of Acetylcholinesterase (P22303 whole entry): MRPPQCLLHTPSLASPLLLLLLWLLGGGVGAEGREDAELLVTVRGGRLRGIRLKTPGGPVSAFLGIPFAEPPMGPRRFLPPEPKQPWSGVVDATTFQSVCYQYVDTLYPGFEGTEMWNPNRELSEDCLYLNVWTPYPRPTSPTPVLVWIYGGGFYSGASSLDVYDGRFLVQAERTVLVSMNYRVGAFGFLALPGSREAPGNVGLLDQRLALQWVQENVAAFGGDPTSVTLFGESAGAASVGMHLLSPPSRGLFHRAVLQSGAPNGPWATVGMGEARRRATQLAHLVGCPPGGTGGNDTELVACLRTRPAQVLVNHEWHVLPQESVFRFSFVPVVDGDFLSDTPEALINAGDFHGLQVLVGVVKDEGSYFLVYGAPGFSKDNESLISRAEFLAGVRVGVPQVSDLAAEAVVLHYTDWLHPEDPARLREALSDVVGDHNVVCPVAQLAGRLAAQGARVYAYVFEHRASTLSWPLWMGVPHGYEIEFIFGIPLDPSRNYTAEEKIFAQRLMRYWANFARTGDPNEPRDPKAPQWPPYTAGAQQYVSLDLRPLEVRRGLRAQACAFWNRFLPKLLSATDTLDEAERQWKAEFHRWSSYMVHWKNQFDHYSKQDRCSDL

As usually defined, the IC50 is the concentration needed to halve the response being measured. Higher therefore signals weaker potency. Turning to `C=C(C)[C@]1(O)CC[C@@]2(C)C3=Cc4c(cc(-c5cccnc5)oc4=O)O[C@]3(C)[C@@H](O)C[C@@H]2[C@@]12CCC(=O)OC2`, the IC50 was determined as 13.9 µM.
